The values that follow come from US20160367497A1, “METHODS AND COMPOSITIONS FOR TREATING NEUROPATHIES” (Washington University, priority 2007, published 2016).

Assay [1] relates to optic nerve (retinal ganglion cell axons). Put plainly: optic nerve transection after intravitreal injection, neurofilament Western blot. Type of assay: in vivo, rat. The following applies: 5 μl of 100 mM intravitreal, 24 hours before transection; 4 days after transection. Here is the method: FIG. 9 illustrates optic nerve transection after intravitreal injection of NAD biosynthetic substrates NAD, NMN, NmR, or Nam was injected into intravitreal compartment of left rat eye and allowed to incorporate retinal ganglion cells for 24 hours after which, left optic nerve was transected by eye enucleation and right and left optic nerves were collected at 4 days after transection and analyzed by Western blotting in which optic nerves transected from […] without any treatment prior to axotomy were used for negative control; showing in the figure, the quantitative analysis data of percentage of remaining neurofilament immunoreactivity from transected optic nerve relative to non-transected±S.D.
Administration of NAD biosynthetic substrates and optic Nerve transection. Nam, NMN, NmR, or NAD was dissolved in PBS at the concentration of 100 mM or 1 M. Each of 5 μl solution was injected into left intravitreal component under the anesthesia at a rate of […]. The left optic nerve was transected at 24 hours after intravitreal injection and optic nerve was recovered at indicated time. Optic nerve tissue was homogenized in 100 μl of a buffer containing 100 mM tris-HCl (pH 6.8), 1% SDS, and 1 mM DTT. Fifty μg of protein for each sample was analyzed by the Western blotting using anti-neurofilament antibody 2H3 (Developmental Studies Hybridoma Center) and peroxidase-conjugated secondary antibody (Jackson ImmunoResearch). The degeneration rate was calculated from the ratio of the neurofilament immunoreactivity of transected vs. contralateral nerves.
Transection of optic nerve is an in vivo model which can be used to investigate mechanisms leading to Wallerian degeneration and following retinal ganglion cell (RGC) death observed in human diseases such as glaucoma. In the C57BL/Wlds mouse strain, optic nerve degeneration during Wallerian degeneration after axotomy is dramatically slowed. In addition, intravitreal injection is used for screening of compounds that protect RGC axon from degeneration in vivo and thus we can asses the axon protective effect of each NAD biosynthetic substrates in vive by intraocular injection of compounds including NAD, NMN, NmR, and Nam. From in vitro Wallerian degeneration assay, 1 mM of NAD, NMN, and NmR in the culture media is enough to protect axon from degeneration. We initially injected 5 μl of 100 mM or 1 M NAD solution into left intravitreal compartment. After 24 hours incubation, left optic nerve was transected and control (right) and axotomized (left) optic nerve were collected at 3, 4, and 5 days after transection. Neurofilament immunoreactivity from the axotomized optic nerve was measured and normalized against the value obtained from the right side of the optic nerve.
In general terms: A western blot detects proteins with antibodies after separation by electrophoresis.

For assay [2], the system named is Tfam, PGC-1α and MFN2 mRNA. In words: mitochondrial biogenesis markers, quantitative RT-PCR in Neuro2a cells. The format is cell-based. The following applies: 10 μM, 3 d.
Experimental: Three days later cells were shifted to serum-starvation medium containing DMSO (control) or resveratrol (10 μM). In addition, uninfected Neuro2a cells in serum-starvation medium were treated with resveratrol alone, the AMPK inhibitor Compound C (CC, Biomol International L.P. (Plymouth Meeting, Pa.)) (10 μM) alone or with resveratrol and CC together. […] Values were normalized to the 18S transcript. Data shown is representative of two independent experiments.
Protein and mRNA analysis. […] Quantitative RT-PCR analysis was performed using Sybr-Green methodology on a model 7700 instrument (Applied Biosystems) as previously described (Araki et al., 2004, Science 305:1010-1013).
We treated Neuro2a cells for 3d with either DMSO (control) or resveratrol (10 μM) in the presence or absence of the AMPK inhibitor Compound C (10 μM). We assessed mitochondrial biogenesis by monitoring mRNA levels of mitofusin 2 (MFN2), a mitochondrial protein and marker of mitochondrial mass and two key regulators of mitochondrial biogenesis, peroxisome proliferator activated receptor γ coactivator 1α (PGC1α) and mitochondrial transcription factor A (Tfam) (Kelly, et al., 2004, Genes Dev 18:357-368).
The subject of assay [3] is acetyl Co-A carboxylase (ACC). Put plainly: ACC phosphorylation in Neuro2a cells (phospho-specific western blot). Type of assay: cell-based. The following applies: resveratrol 10 μM or AICAR 1 mM; all time points to 72 hr. Here is the method: FIG. 10A-D illustrates resveratrol activation of AMP kinase in Neuro2a cells. Neuro2a cells were switched to serum-starvation medium (medium containing 0.2% FCS) and treated with DMSO (vehicle control), resveratrol (10 μM) or 5-aminoimidazole-4-carboxamide-1-β-D-ribofuranoside (AICAR) (1 mM). […] Very low levels of phosphorylated AMPK and ACC were detected in DMSO treated control cells at all time points tested. (C) Densitometric analysis of changes in phosphorylated AMPK and (D) phosphorylated ACC under different conditions is shown.
Plasmids and viruses. […] Quantitative RT-PCR analysis was performed using Sybr-Green methodology on a model 7700 instrument (Applied Biosystems) as previously described (Araki et al., 2004, Science 305:1010-1013). […]
To explore the role of polyphenols, in particular, of resveratrol, we tested whether resveratrol altered the activity of AMPK in neuronal cells. […] To confirm that AMPK activation by resveratrol results in typical AMPK-mediated downstream responses, we monitored phosphorylation of ACC (acetyl Co-A carboxylase), a primary target of activated AMPK. […] To examine a potential mechanism of resveratrol-mediated AMPK activation, we measured cellular ATP levels as a decreased ATP:AMP ratio increases the phosphorylation of AMPK. […]

For a further assay, the system named is neuro2A cells. In words: Neuro2a cell proliferation, Ki67 immunocytochemistry. The format is cell-based. The following applies: 0.2% fetal calf serum; AICAR 1 mM or resveratrol 10 μM; 24 h after plating; DMSO controls 50%. On the procedure: Neuro2a cells are a widely used as in vitro model of neuronal differentiation. These cells cease to proliferate and begin to differentiate, as evidenced by neurite outgrowth, in response to serum starvation, retinoic acid, or growth factors like neurotrophins and GDNF family ligands. […] Neuro2a cells grown under serum starvation conditions (0.2% fetal calf serum) were treated with AICAR (1 mM) or resveratrol (10 μM).

As to `NC(=O)c1cccnc1` [Nam, nicotinamide], the “neurofilament immunoreactivity of axotomized optic nerve, of non-axotomized optic nerve” value in assay [1] is on record as “did not show any difference from the control animals”.

For `Oc1ccc(C=Cc2cc(O)cc(O)c2)cc1` [resveratrol], in assay [2], the “increase in MFN2 mRNA” value turned out to be 2 fold, the “increase in PGC-1α mRNA” value is recorded as 2 fold and the “increase in Tfam mRNA” value is reported as around 18 fold. The ACC phosphorylation entry in assay [3] is reported as “robust phosphorylation of ACC”. Also, the “proliferating cells (Ki67)” value in the assay on neuro2A cells was 11%.
